Data from patent US11795200B2, “Nano small peptide and its use in preparation of drugs for treating and preventing fundus vascular diseases” (FUTU Biotech Co., Ltd., priority 2021, dated 2023).
Where two headings read alike, the source gives them in different places. Non-standard residues stand in square brackets, D forms with d. Residues, ends and D or L forms follow the SMILES beside them. No end group written: not given here. *: point of attachment. Palmitoyl = CCCCCCCCCCCCCCCC(=O)*

Columns and labels:
[1] = In vivo imaging of small animals, entry into vitreous humor; details: eye drops (10 μL, 20 μM, three times) and vitreous injection (1 μl, 20 μM)
Protocol: (§1) 10 μL of FH and FG eye drops (with the concentration of 20 μM, the solvent therein was artificial tears) were instilled on the eyeball surface of mice (8-week-old C57 male mice), once at an interval of 1 h. One hour after the third eye drop, the mice were anesthetized to have cardiac perfusion, the eyeballs of the mice were taken out, the connective tissue on the eye surface was trimmed, and the eyeballs were washed with PBS solution for several times to remove the nano eye drops from the surface of the eyeballs. The eyeball was placed in a small animal imager (at emission wavelength of 535 nm and excitation wavelength of 490 nm) for image acquisition.

[2] = tested on: primary mouse brain microvascular endothelial cells; test: sSema4D-induced endothelial cell migration (transwell experiment); format: cell-based; details: 24 h; for inhibition of endothelial cell migration compared with BMA-12: 20 μM vs BMA-12 2 μg/μL; for sSema4D-induced endothelial cell migration: 20 μM, sSema4D 1600 ng/mL
Protocol: The primary mouse brain microvascular endothelial cells were starved with 0.5% ECM for 4 to 6 h. The mouse brain microvascular endothelial cells were seeded in the upper layer of a 24-well transwell chamber ([…]). 1% ECM medium containing FH (20 μM), FG (20 μM), and Sema4D neutralizing antibody (BMA-12) (2 μg/μL) (the concentration of sSema4D in the medium is 1600 ng/mL) was added to the lower chamber, and an equal volume of DMSO was added as control. The cells were incubated in a 5% CO2 incubator at 37° C. for 24 h. 24 h later, the cells on the bottom of the chamber were fixed with 4% paraformaldehyde and stained with crystal violet, and the endothelial cells that penetrated to the bottom of the chamber were counted under a microscope.

[3] = tested on: mouse brain microvascular endothelial cells; test: sSema4D-induced endothelial cell leakage (transmembrane resistance); format: cell-based; details: 36 h; for effect on endothelial cell leakage compared with BMA-12: 20 μM vs BMA-12 2 μg/μL; for sSema4D-induced endothelial cell leakage: 20 μM, sSema4D 1600 ng/mL
Protocol: A layer of fibronectin was first applied to coat the upper layer of a 24-well transwell chamber (0.4 um) and incubated at room temperature for 1 h; after coating, the mouse brain microvascular endothelial cells were seeded, and cultured for 5 days until the cells were full, and then FH (20 μM), FG (20 μM), and Sema4D neutralizing antibody (BMA-12) (2 μg/μL) were added to the medium (the concentration of sSema4D in the medium was 1600 ng/mL), respectively. An equal volume of DMSO was added as a control, and ECM was used as a blank control. After incubation for 36 h, the resistance value was measured by a cell transmembrane resistance measuring instrument.

[4] = tested on: endothelial cells (primary endothelial cells of mouse brain microvessels); test: CCK8 cytotoxicity assay; details: 20 μM; 12, 14, and 36 h
[5] = DLS particle size and zeta potential of FH and FG nanoparticles; format: physicochemical; details: zeta sizer, 25° C.
Protocol: First, FG and FH nanoparticle solutions with a concentration of 20 μM were prepared as follows. 0.01 mmol of FG (or FH) was weighed and dissolved in 1 mL of DMSO solution, and then diluted into 5 folds to a concentration of 2 mM, thus obtaining mother solution A. 10 μL of mother solution A was quickly added to 1 mL of water, and the resulting solution was then vortexed for 30 s to obtain a nanoparticle solution. Second, samples were made. 10 ul of FG (or FH) solution was added dropwise onto a copper mesh for 5 min, and the excess solution was removed with filter paper. 10 μL of uranyl acetate stain was added dropwise for 5 min, and the excess stain was removed with filter paper. Washing with 10 μl of deionized water was carried out once. The samples were dried in vacuum overnight. Finally, transmission electron microscopy observations were performed on an HT-7700 transmission electron microscope (Hitachi, Tokyo, Japan). Scale bar was 200 nm.
The particle size and zeta potential of FH and FG nanoparticles were measured with a zeta sizer (Nano ZZ90, Malvern, UK) at 25° C.

[6] = mouse, in vivo
Protocol: as §1

## CCCCCCCCCCCCCCCC(=O)N[C@H](Cc1ccccc1)C(=O)N[C@@H](Cc1ccccc1)C(=O)N[C@H](C(=O)N[C@@H](CC(C)C)C(=O)N[C@@H](CCCCN)C(=O)N[C@@H](CCCCN)C(=O)N[C@@H](CCC(N)=O)C(=O)N[C@@H](CCCCN)C(=O)N[C@@H](CCCNC(=N)N)C(=O)N1CCC[C@H]1C(=O)N[C@@H](CCCNC(=N)N)C(=O)N[C@@H](Cc1c[nH]cn1)C(=O)O)C(C)C [FH] (Palmitoyl-[dF]FVLKKQKRPRH-OH)
[1]
  entry into the vitreous humor of mice: entered the vitreous humor of mice
[2]
  inhibition of endothelial cell migration compared with BMA-12: more effective in inhibiting endothelial cell migration than Sema4D neutralizing antibody (BMA-12)
  sSema4D-induced endothelial cell migration: can significantly inhibit the sSema4D-induced endothelial cell migration
[3]
  effect on endothelial cell leakage compared with BMA-12: comparable to that of Sema4D neutralizing antibody (BMA-12)
  sSema4D-induced endothelial cell leakage: can significantly inhibit sSema4D-induced endothelial cell leakage
[4]
  toxic effects on endothelial cells: did not cause toxic effects
[5]
  charges (zeta potential): +40.4 mV
  particle diameters: 54.43±2.8 nm

## Palmitoyl-FFVLKKNKAAKG [FG]
[6]
  entry into the vitreous humor of mice: entered the vitreous humor of mice
[2]
  inhibition of endothelial cell migration compared with BMA-12: more effective in inhibiting endothelial cell migration than Sema4D neutralizing antibody (BMA-12)
  sSema4D-induced endothelial cell migration: can significantly inhibit the sSema4D-induced endothelial cell migration
[3]
  effect on endothelial cell leakage compared with BMA-12: comparable to that of Sema4D neutralizing antibody (BMA-12)
  sSema4D-induced endothelial cell leakage: can significantly inhibit sSema4D-induced endothelial cell leakage
[5]
  charges (zeta potential): +44.8 mV
  particle diameters: 57.67±2.6 nm
